Tests used:
[1] = target: T1, D-amino acid oxidase (DAAO; EC 1.4.3.3) (Sus scrofa, UniProt P00371); assay: In vitro inhibition of DAAO using the keto acid method; assay type: biochemical; conditions: DAAO 20 μg/ml, D-Alanine 15 mM, 10 min at room temperature, pH 8.3, absorbance at 450 nm; read-out: keto acid method pIC50 (converted)
T1 construct: purchased Sigma
Method: (§1) D-amino acid oxidase (DAAO; EC 1.4.3.3) catalyzes the oxidation of D-stereo isomers of amino acids.
Two in vitro methods were developed to measure the catalytic activity of DAAO: • 1. The peroxide method: measures the amount of peroxide produced, using an auxiliary enzyme horse radish peroxidase • 2. […]
DAAO (20 μg/ml) is incubated for 10 min at room temperature with the substrate D-Alanine (15 mM) in 0.19 mM pyrophosphatebuffer pH 8.3 containing FAD (11 μg/ml), and bovine liver catalase (EC 1.11.1.6) (4.3 mg/ml) in a total volume of 50 μl. Compounds were added in a 0.5 μl volume to a final DMSO concentration of 1%. The reaction is stopped by adding 25 μl 1 mM […] dinitrophenylhydrazine in 1N HCl, After a second 10 min incubation at room temperature, 175 μl 0.6 N NaOH is added and the formed hydrazone is detected by measuring the absorbance at 450 nm. All products were purchased from Sigma.

[2] = target: T1, D-amino acid oxidase (DAAO; EC 1.4.3.3); assay: In vitro inhibition of DAAO using the peroxide method; assay type: biochemical; conditions: DAAO 2.6 μg/ml, D-Alanine 7.5 mM, 60 minutes at room temperature, absorbance at 492 nm; read-out: H2O2 method pIC50 (converted)
Method: as §1
Two in vitro methods were developed to measure the catalytic activity of DAAO: • 1. The peroxide method: measures the amount of peroxide produced, using an auxiliary enzyme horse radish peroxidase • 2. The keto acid method: measures the ax keto acid formed
The general reaction to determine the amount of peroxide produced by catalytic action of DAAO can be described as: [drawing 36]
DAAO (2.6 μg/ml) is incubated for 60 minutes at room temperature with the substrate D-Alanine (7.5 mM) in 0.019 M sodiumpyrophosphate buffer containing FAD(5.5 μg/ml), HRP (200 μg/ml), DHBS (1667 μg/ml) and 4-aminoantipyrine(500 μg/ml) in a total volume of 50 μl. Compounds were added in a 0.5 μl volume to a final DMSO concentration of 1%. The reaction was terminated by addition of 30 μl of 0.5M phosphate buffer pH 5.0. The quinone-imine dye was detected by measuring the absorbance at 492 nm. All products were purchased from Sigma.

T1 sequence (P00371 whole entry): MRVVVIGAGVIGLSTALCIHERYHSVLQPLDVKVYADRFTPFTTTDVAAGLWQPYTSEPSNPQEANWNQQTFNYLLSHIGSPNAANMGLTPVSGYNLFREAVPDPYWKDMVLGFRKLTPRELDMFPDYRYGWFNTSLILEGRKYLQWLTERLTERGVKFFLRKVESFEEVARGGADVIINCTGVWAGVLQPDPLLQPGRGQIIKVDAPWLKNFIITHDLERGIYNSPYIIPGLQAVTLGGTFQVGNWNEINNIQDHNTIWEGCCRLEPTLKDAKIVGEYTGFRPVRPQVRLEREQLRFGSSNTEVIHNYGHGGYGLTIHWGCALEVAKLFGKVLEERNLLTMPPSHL

melting point [°C]	IC50 [1] [nM]	IC50 [2] [nM]	Structure (SMILES)
–	1000	631	Cc1onc(-c2c(Cl)cccc2Cl)c1C(=O)Oc1noc2ccc(Cl)cc12 [Compound 17]
–	1000	631	Cc1onc(-c2c(Cl)cccc2Cl)c1NC(=O)n1oc2ccc(Cl)cc2c1=O [Compound 21]
–	794	631	CNC(=O)n1oc2ccc(Cl)cc2c1=O [Compound 22]
–	1000	794	CC(C)NC(=O)n1oc2ccc(Cl)cc2c1=O [Compound 23]
–	794	631	CCCNC(=O)n1oc2ccc(Cl)cc2c1=O [Compound 25]
–	200	50.1	CC(C)(C)NC(=O)n1oc2cc(Cl)ccc2c1=O [Compound 27]

The next lines start with the compound.

Structure (SMILES)	melting point [°C]	IC50 [1] [nM]	IC50 [2] [nM]
COc1ccc2c(O)noc2c1	208	–	–
COc1ccc2c(=O)n(C(=O)NC(C)C)oc2c1 [Compound 1]	121	–	–
O=C(/N=c1/c2ccccc2on1C(=O)c1ccccc1)c1ccccc1 [Compound 10]	97 to 100	–	–
Cc1cc(C(=O)Oc2noc3cc(Cl)ccc23)no1 [Compound 18]	–	126	31.6
Cc1ccc2onc(OC(=O)c3cc(C)on3)c2c1 [Compound 19]	126 to 128	5010	3980
Cc1ccc2on(C(=O)NC(C)(C)C)c(=O)c2c1 [Compound 26]	–	2000	3160
Cc1ccc2on(C(=O)NC(C)C)c(=O)c2c1 [Compound 28]	–	2000	3980
CC(C)NC(=O)n1oc2ccccc2c1=O [Compound 29]	–	3980	–

— US20070197610A1, “Benzisoxazoles” (Janssen Pharmaceutica N.V., priority 2004, published 2007)
